This note sets out measurements from DBAASP.

Converted amounts (≈) assume the structure as drawn. “And” between values parts separate entries of the source, which are not always exact repeats. Equal entries are not always repeated.

Test systems include Candida glabrata; Saccharomyces cerevisiae; Bacillus subtilis JC443; Escherichia coli D21; Staphylococcus aureus; Bacillus megaterium; Escherichia coli; Klebsiella pneumoniae; Aspergillus flavus; Acinetobacter baumannii; Escherichia coli JC113; Listeria ivanovii; Escherichia coli ML-35p; Micrococcus luteus; Bacillus cereus C737; Leuconostoc lactis; Pasteurella multocida; Listeria innocua; Bacillus cereus; Escherichia coli UB1005; Streptococcus uberis; Salmonella typhimurium.

Common to all, as to test: ≥ marks a high value that may be exact or a test limit, other limits are often not marked, values filed in µg/mL are converted to µM
In experiment [1] the test system is Candida albicans IHEM 8060.
Experiment [2] deals with Staphylococcus aureus USA 100.
The subject of experiment [3] is Pseudomonas aeruginosa ATCC 9027.
Experiment [4] has as its system Streptococcus pyogenes ATCC 19615.
The test system of experiment [5] is Acinetobacter baumannii ATCC 19606.
The test system of experiment [6] is Escherichia coli ATCC 35218.
Experiment [7] relates to Candida albicans ATCC 90028.
Experiment [8] relates to Pseudomonas aeruginosa JC115.
Experiment [9] concerns Candida parapsilosis ATCC 22019.
Experiment [10] deals with Staphylococcus aureus USA 300.
Experiment [11] relates to Staphylococcus aureus JC114.
Experiment [12] relates to Enterococcus faecalis ATCC 29212.
Experiment [13] deals with Klebsiella pneumoniae ATCC 700603.
Experiment [14] deals with Staphylococcus aureus ATCC BAA-44.
Experiment [15] relates to Pseudomonas aeruginosa ATCC 27853.
Experiment [16] concerns Staphylococcus aureus ATCC 43300.
Experiment [17] relates to Staphylococcus epidermidis.
The test system of experiment [18] is Pseudomonas aeruginosa PAO1.
The subject of experiment [19] is Shewanella putrefaciens IAM 1509.
Experiment [20] deals with Bacillus subtilis IAM 1026.
Experiment [21] relates to Escherichia coli JCM 1649.
The subject of experiment [22] is Vibrio anguillarum NCIMB 829.
Experiment [23] deals with Aeromonas salmonicida NCIMB 1102.
Experiment [24] concerns Vibrio parahaemolyticus Vp+1.
The test system of experiment [25] is Staphylococcus aureus IAM 1011.
The subject of experiment [26] is Photobacterium damselae subsp. piscicida Sp 9587.

Usually MIC stands for the lowest concentration that inhibits growth of the organism. A low value points to a more susceptible organism. For `CC[C@H](C)[C@@H]1NC(=O)[C@@H](N)CSSC[C@@H]2NC(=O)[C@@H]3CSSC[C@@H](C(=O)N[C@@H](CCCN=C(N)N)C(=O)O)NC(=O)[C@H](Cc4ccc(O)cc4)NC(=O)CNC(=O)[C@H](C)NC(=O)[C@H](C(C)C)NC(=O)[C@H](Cc4c[nH]c5ccccc45)NC(=O)CNC(=O)[C@@H]4CCCN4C(=O)[C@H](CCC(=O)O)NC(=O)[C@H](CCCCN)NC(=O)[C@H](Cc4cnc[nH]4)NC(=O)[C@H](CSSC[C@H](NC(=O)CNC(=O)[C@H](CC(N)=O)NC(=O)[C@H](CCCN=C(N)N)NC(=O)[C@H](CC(N)=O)NC(=O)[C@H](C)NC1=O)C(=O)N[C@@H](CCC(N)=O)C(=O)N1CCC[C@H]1C(=O)N[C@@H](CC(=O)O)C(=O)NCC(=O)N[C@@H](CO)C(=O)N[C@@H](CCC(N)=O)C(=O)NCC(=O)N[C@@H](CC(N)=O)C(=O)N3)NC(=O)[C@H](Cc1ccc(O)cc1)NC(=O)CNC(=O)[C@H](CO)NC2=O` [CIANRNGCQPDGSQGNCCSGYCHKEPGWVAGYCR], the MIC (in experiment [1]; in the experiment with Candida glabrata) was 17.6 µM (≈ 63.9 µg/mL) throughout.

As for `CC[C@H](C)[C@H](NC(=O)[C@H](CCCN=C(N)N)NC(=O)[C@H](CO)NC(=O)[C@H](CC(C)C)NC(=O)[C@H](Cc1ccccc1)NC(=O)[C@H](Cc1ccccc1)NC(=O)[C@@H](N)Cc1ccccc1)C(=O)N[C@@H](Cc1ccccc1)C(N)=O` [FFFLSRIF], the MIC against Saccharomyces cerevisiae was 12.5 µM (≈ 13.4 µg/mL); in the experiment on Bacillus subtilis JC443 it was ≥ 149 µM; against Escherichia coli D21, ≥ 100 µM; in experiment [2] it was ≥ 50 µM; in [3] it was > 100 µM; in experiment [4], 25 µM (≈ 26.9 µg/mL). Also, the MIC in [5] was > 100 µM; in experiment [6] it was ≥ 200 µM; in experiment [7] it was ≥ 100 µM; in the experiment with Staphylococcus aureus it was 100 µM (≈ 108 µg/mL); against Bacillus megaterium it was 3 µM (≈ 3.23 µg/mL); with Escherichia coli it was > 100 µM. Moreover, the MIC was > 100 µM in the experiment on Klebsiella pneumoniae; ≥ 88 µM in [8]; ≥ 200 µM in the experiment with Aspergillus flavus; ≥ 50 µM in experiment [9]; ≥ 50 µM in experiment [10]; ≥ 121 µM in [11]. Besides, the MIC with Acinetobacter baumannii is ≥ 100 µM; in experiment [12] it was 50 µM and 100 µM; in experiment [13], > 100 µM; in [14], 25 µM (≈ 26.9 µg/mL); in the experiment with Escherichia coli JC113 it was ≥ 116 µM; in [15] it was > 200 µM and 100 µM. The values for the MIC (in the experiment on Listeria ivanovii; in experiment [16]; in the experiment on Escherichia coli ML-35p) were ≥ 50 µM, > 100 µM and 30 µM (≈ 32.3 µg/mL), respectively.

For `CC[C@H](C)[C@H](NC(=O)[C@H](CC(=O)O)NC(=O)[C@H](Cc1ccccc1)NC(=O)[C@H](CC(C)C)NC(=O)CN)C(=O)N[C@H](C(=O)N[C@@H](CCCCN)C(=O)N[C@@H](CCCCN)C(=O)N[C@H](C(=O)N[C@H](C(=O)NCC(=O)N[C@@H](C)C(=O)N[C@@H](CC(C)C)C(=O)NCC(=O)N[C@@H](CO)C(=O)N[C@@H](CC(C)C)C(N)=O)C(C)C)C(C)C)C(C)C` [GLFDIVKKVVGALGSL], the MIC against Micrococcus luteus was 15.5 µM (≈ 25 µg/mL); in the experiment on Bacillus cereus C737, ≥ 79.2 µM; in the experiment on Leuconostoc lactis, 7.43 µM (≈ 12 µg/mL); with Staphylococcus aureus, 15.5 µM (≈ 25 µg/mL); in experiment [17], 15.5 µM (≈ 25 µg/mL); in the experiment with Pasteurella multocida it was ≥ 61.9 µM. The MIC is > 61.9 µM in the experiment on Escherichia coli; 7.43 µM (≈ 12 µg/mL) against Listeria innocua; ≥ 61.9 µM against Bacillus cereus; ≥ 39.6 µM against Escherichia coli UB1005; ≥ 61.9 µM in the experiment with Streptococcus uberis; > 79.2 µM in experiment [18].

As for `CC[C@H](C)[C@H](NC(=O)[C@H](CCCCN)NC(=O)CNC(=O)[C@H](CC(C)C)NC(=O)[C@@H](NC(=O)[C@H](CCCCN)NC(=O)[C@H](CCCNC(=N)N)NC(=O)[C@H](Cc1c[nH]c2ccccc12)NC(=O)[C@@H](N)CC(N)=O)[C@@H](C)CC)C(=O)N[C@@H](C)C(=O)N[C@@H](CCCCN)C(=O)N[C@H](C(=O)N[C@@H](C)C(=O)N[C@@H](C)C(=O)NCC(=O)N[C@@H](CC(C)C)C(=O)N[C@@H](CC(C)C)C(=O)NCC(=O)N[C@@H](CO)C(=O)N[C@@H](CCSC)C(=O)N[C@@H](CC(C)C)C(=O)N[C@@H](C)C(=O)NCC(=O)N[C@@H](Cc1ccc(O)cc1)C(=O)N[C@@H](CCC(N)=O)C(=O)N[C@H](C(=O)O)C(C)C)C(C)C` [NWRKILGKIAKVAAGLLGSMLAGYQV], the MIC amounted to 2.27 µM (≈ 6.25 µg/mL) in [19]; 2.27 µM (≈ 6.25 µg/mL) in experiment [20]; 4.53 µM (≈ 12.5 µg/mL) with Salmonella typhimurium; 4.53 µM (≈ 12.5 µg/mL) in [21]; 4.35 µM (≈ 12 µg/mL) in [22]; 9.06 µM (≈ 25 µg/mL) in [23]. Also, the MIC was 9.06 µM (≈ 25 µg/mL) in experiment [24], 4.53 µM (≈ 12.5 µg/mL) in [25] and 2.27 µM (≈ 6.25 µg/mL) in [26].
